# ChEMBL document CHEMBL3885861, “Open TG-GATES”
# Organism: Rattus norvegicus
# Assay: Open TG-GATES - Regimen: Single
# Assay type: toxicity, organism-based, Sprague-Dawley
# Design: regimen Single, gender Male, age 6 weeks
# Settings: in vivo, po, 20 mg/kg, route gavage, dose level High; for KIDNEY_L / KIDNEY_R / KIDNEY_TOTAL: tissue Kidney; for LIVER: tissue Liver; for ALP / ALT / AST / BUN / CRE / Ca / Cl / DBIL / GLC / IP / K / LDH / Na / PL / RALB / TBIL / TC / TG / TP / gamma-GTP: tissue Plasma
smiles,measurement,setting,value
OCCN1CCN(CCCN2c3ccccc3Sc3ccc(C(F)(F)F)cc32)CC1 [FLUPHENAZINE],TERMINAL_BW,3 h,197.6 g
same,APTT,"3 h, tissue Blood",16.7 s
same,Bas,"3 h, tissue Blood",0%
same,Eos,"3 h, tissue Blood",0.8%
same,Fbg,"3 h, tissue Blood",205.4 mg/dL
same,Hb,"3 h, tissue Blood",12.9 g/dL
same,Lym,"3 h, tissue Blood",81.6%
same,MCH,"3 h, tissue Blood",21.4 pg
same,MCHC,"3 h, tissue Blood",33%
same,MCV,"3 h, tissue Blood",64.9 fL
same,Mono,"3 h, tissue Blood",4.4%
same,Neu,"3 h, tissue Blood",13.6%
same,PT,"3 h, tissue Blood",12.7 s
same,Plat,"3 h, tissue Blood",111.6 x10_4/uL
same,RBC,"3 h, tissue Blood",600.6 x10_4/ul
same,Ret,"3 h, tissue Blood",9.2%
same,WBC,"3 h, tissue Blood",64.5 x10_2/uL
same,KIDNEY_L,3 h,0.9 g
same,KIDNEY_R,3 h,0.9 g
same,KIDNEY_TOTAL,3 h,1.8 g
same,LIVER,3 h,9.2 g
same,ALP,3 h,781.6 IU/L
same,ALT,3 h,29.4 IU/L
same,AST,3 h,58 IU/L
same,BUN,3 h,10 mg/dL
same,CRE,3 h,0.5 mg/dL
same,Ca,3 h,10.7 mg/dL
same,Cl,3 h,107.4 meq/L
same,DBIL,3 h,0.006 mg/dL
same,GLC,3 h,225.6 mg/dL
same,IP,3 h,10.6 mg/dL
same,K,3 h,4.3 meq/L
same,LDH,3 h,145.2 IU/L
same,Na,3 h,139 meq/L
same,PL,3 h,132 mg/dL
same,RALB,3 h,3.7 g/dL
same,TBIL,3 h,0.3 mg/dL
same,TC,3 h,74.6 mg/dL
same,TG,3 h,33.8 mg/dL
same,TP,3 h,5.3 g/dL
same,gamma-GTP,3 h,1.6 IU/L
same,TERMINAL_BW,6 h,194.7 g
same,APTT,"6 h, tissue Blood",16.3 s
same,Bas,"6 h, tissue Blood",0%
same,Eos,"6 h, tissue Blood",0.4%
same,Fbg,"6 h, tissue Blood",205.8 mg/dL
same,Hb,"6 h, tissue Blood",12.8 g/dL
same,Lym,"6 h, tissue Blood",79%
same,MCH,"6 h, tissue Blood",21.9 pg
same,MCHC,"6 h, tissue Blood",32.9%
same,MCV,"6 h, tissue Blood",66.4 fL
same,Mono,"6 h, tissue Blood",6.4%
same,Neu,"6 h, tissue Blood",14.6%
same,PT,"6 h, tissue Blood",12.3 s
same,Plat,"6 h, tissue Blood",100.1 x10_4/uL
same,RBC,"6 h, tissue Blood",587.4 x10_4/ul
same,Ret,"6 h, tissue Blood",7.7%
same,WBC,"6 h, tissue Blood",59.6 x10_2/uL
same,KIDNEY_L,6 h,0.9 g
same,KIDNEY_R,6 h,0.9 g
same,KIDNEY_TOTAL,6 h,1.8 g
same,LIVER,6 h,8.8 g
same,ALP,6 h,839.8 IU/L
same,ALT,6 h,32 IU/L
same,AST,6 h,60.2 IU/L
same,BUN,6 h,10.6 mg/dL
same,CRE,6 h,0.5 mg/dL
same,Ca,6 h,10 mg/dL
same,Cl,6 h,107.4 meq/L
same,DBIL,6 h,0.018 mg/dL
same,GLC,6 h,215.2 mg/dL
same,IP,6 h,9.9 mg/dL
same,K,6 h,4.3 meq/L
same,LDH,6 h,171.6 IU/L
same,Na,6 h,138 meq/L
same,PL,6 h,125.6 mg/dL
same,RALB,6 h,3.5 g/dL
same,TBIL,6 h,0.4 mg/dL
same,TC,6 h,76 mg/dL
same,TG,6 h,16.6 mg/dL
same,TP,6 h,5.3 g/dL
same,gamma-GTP,6 h,1.2 IU/L
same,TERMINAL_BW,9 h,190.3 g
same,APTT,"9 h, tissue Blood",16.3 s
same,Bas,"9 h, tissue Blood",0%
same,Eos,"9 h, tissue Blood",0.2%
same,Fbg,"9 h, tissue Blood",214.8 mg/dL
same,Hb,"9 h, tissue Blood",12.7 g/dL
same,Lym,"9 h, tissue Blood",76.8%
same,MCH,"9 h, tissue Blood",21.3 pg
same,MCHC,"9 h, tissue Blood",33.1%
same,MCV,"9 h, tissue Blood",64.4 fL
same,Mono,"9 h, tissue Blood",6%
same,Neu,"9 h, tissue Blood",16.4%
same,PT,"9 h, tissue Blood",12.3 s
same,Plat,"9 h, tissue Blood",113.7 x10_4/uL
same,RBC,"9 h, tissue Blood",594 x10_4/ul
same,Ret,"9 h, tissue Blood",8.4%
same,WBC,"9 h, tissue Blood",72.7 x10_2/uL
same,KIDNEY_L,9 h,0.9 g
same,KIDNEY_R,9 h,0.9 g
same,KIDNEY_TOTAL,9 h,1.8 g
same,LIVER,9 h,7.8 g
same,ALP,9 h,741.8 IU/L
same,ALT,9 h,28.8 IU/L
same,AST,9 h,56 IU/L
same,BUN,9 h,9.6 mg/dL
same,CRE,9 h,0.5 mg/dL
same,Ca,9 h,10 mg/dL
same,Cl,9 h,107 meq/L
same,DBIL,9 h,0.03 mg/dL
same,GLC,9 h,197 mg/dL
same,IP,9 h,9.6 mg/dL
same,K,9 h,4.2 meq/L
same,LDH,9 h,157.8 IU/L
same,Na,9 h,139.2 meq/L
same,PL,9 h,135 mg/dL
same,RALB,9 h,3.7 g/dL
same,TBIL,9 h,0.3 mg/dL
same,TC,9 h,89 mg/dL
same,TG,9 h,11.2 mg/dL
same,TP,9 h,5.3 g/dL
same,gamma-GTP,9 h,1.2 IU/L
same,TERMINAL_BW,24 h,176 g
same,APTT,"24 h, tissue Blood",16.6 s
same,Bas,"24 h, tissue Blood",0%
same,Eos,"24 h, tissue Blood",0.2%
same,Fbg,"24 h, tissue Blood",206.6 mg/dL
same,Hb,"24 h, tissue Blood",14.7 g/dL
same,Ht,"24 h, tissue Blood",44.3%
same,Lym,"24 h, tissue Blood",81.2%
same,MCH,"24 h, tissue Blood",21.5 pg
same,MCHC,"24 h, tissue Blood",33.2%
same,MCV,"24 h, tissue Blood",64.8 fL
same,Mono,"24 h, tissue Blood",7.6%
same,Neu,"24 h, tissue Blood",10.6%
same,PT,"24 h, tissue Blood",12.2 s
same,Plat,"24 h, tissue Blood",125.2 x10_4/uL
same,RBC,"24 h, tissue Blood",684 x10_4/ul
same,Ret,"24 h, tissue Blood",6.6%
same,WBC,"24 h, tissue Blood",78.6 x10_2/uL
same,KIDNEY_L,24 h,0.9 g
same,KIDNEY_R,24 h,0.9 g
same,KIDNEY_TOTAL,24 h,1.8 g
same,LIVER,24 h,7.5 g
same,ALP,24 h,847.4 IU/L
same,ALT,24 h,27.8 IU/L
same,AST,24 h,69.6 IU/L
same,BUN,24 h,23.8 mg/dL
same,CRE,24 h,0.5 mg/dL
same,Ca,24 h,10.5 mg/dL
same,Cl,24 h,105.4 meq/L
same,DBIL,24 h,0.012 mg/dL
same,GLC,24 h,176 mg/dL
same,IP,24 h,9 mg/dL
same,K,24 h,4.9 meq/L
same,LDH,24 h,171.6 IU/L
same,Na,24 h,138.6 meq/L
same,PL,24 h,138.8 mg/dL
same,RALB,24 h,4.3 g/dL
same,TBIL,24 h,0.3 mg/dL
same,TC,24 h,87.6 mg/dL
same,TG,24 h,44.6 mg/dL
same,TP,24 h,6.1 g/dL
same,gamma-GTP,24 h,1.2 IU/L
